{"source": "patent US20140323300A1", "about": "“HERBICIDAL COMPOUNDS” (SYNGENTA LIMITED, priority 2011, published 2014)", "type_in_all_cases": "in vivo", "key": {"Setaria faberi (SETFA) [1]": {"test_system": "Setaria faberi (SETFA)", "test": "Pre-emergence glasshouse herbicide test", "conditions": "pre-emergence (sprayed after one day cultivation), 1000 g/h, evaluated after 13 days, five point scale", "method": "(§1) Seeds of a variety of test species are sown in standard soil in pots (Alopecurus myosuroides (ALOMY), Setaria faberi (SETFA), Echinochloa crus-galli (ECHCG), Solanum nigrum (SOLNI), Amaranthus retoflexus (AMARE), Ipomoea hederacea (IPOHE)). After cultivation for one day (pre-emergence) or after 8 days cultivation (post-emergence) under controlled conditions in a glasshouse (at 24/16° C., day/night; 14 hours light; 65% humidity), the plants are sprayed with an aqueous spray solution derived from the formulation of the technical active ingredient in acetone/water (50:50) solution containing 0.5% Tween 20 (polyoxyethelyene sorbitan monolaurate, CAS RN 9005-64-5). Compounds are applied at 1000 g/h. The test plants are then grown in a glasshouse under controlled conditions in a glasshouse (at 24/16° C., day/night; 14 hours light; 65% humidity) and watered twice daily. After 13 days for pre and post-emergence, the test is evaluated for the percentage damage caused to the plant. The biological activities are shown in the following table on a five point scale (5=80-100%; 4=60-79%; 3=40-59%; 2=20-39%; 1=0-19%)."}, "[2]": {"test_system": "Ipomoea hederacea (IPOHE)", "test": "Pre-emergence glasshouse herbicide test", "conditions": "pre-emergence (sprayed after one day cultivation), 1000 g/h, evaluated after 13 days, five point scale", "method": "as §1"}, "[3]": {"test_system": "Amaranthus retoflexus (AMARE)", "test": "Pre-emergence glasshouse herbicide test", "conditions": "pre-emergence (sprayed after one day cultivation), 1000 g/h, evaluated after 13 days, five point scale", "method": "as §1"}, "[4]": {"test_system": "Echinochloa crus-galli (ECHCG)", "test": "Pre-emergence glasshouse herbicide test", "conditions": "pre-emergence (sprayed after one day cultivation), 1000 g/h, evaluated after 13 days, five point scale", "method": "as §1"}, "Solanum nigrum (SOLNI) [5]": {"test_system": "Solanum nigrum (SOLNI)", "test": "Pre-emergence glasshouse herbicide test", "conditions": "pre-emergence (sprayed after one day cultivation), 1000 g/h, evaluated after 13 days, five point scale", "method": "as §1"}, "[6]": {"test_system": "Alopecurus myosuroides (ALOMY)", "test": "Pre-emergence glasshouse herbicide test", "conditions": "pre-emergence (sprayed after one day cultivation), 1000 g/h, evaluated after 13 days, five point scale", "method": "as §1"}, "Setaria faberi (SETFA) [7]": {"test_system": "Setaria faberi (SETFA)", "test": "Post-emergence glasshouse herbicide test", "conditions": "post-emergence (sprayed after 8 days cultivation), 1000 g/h, evaluated after 13 days, five point scale", "method": "as §1"}, "[8]": {"test_system": "Ipomoea hederacea (IPOHE)", "test": "Post-emergence glasshouse herbicide test", "conditions": "post-emergence (sprayed after 8 days cultivation), 1000 g/h, evaluated after 13 days, five point scale", "method": "as §1"}, "[9]": {"test_system": "Amaranthus retoflexus (AMARE)", "test": "Post-emergence glasshouse herbicide test", "conditions": "post-emergence (sprayed after 8 days cultivation), 1000 g/h, evaluated after 13 days, five point scale", "method": "as §1"}, "[10]": {"test_system": "Echinochloa crus-galli (ECHCG)", "test": "Post-emergence glasshouse herbicide test", "conditions": "post-emergence (sprayed after 8 days cultivation), 1000 g/h, evaluated after 13 days, five point scale", "method": "as §1"}, "Solanum nigrum (SOLNI) [11]": {"test_system": "Solanum nigrum (SOLNI)", "test": "Post-emergence glasshouse herbicide test", "conditions": "post-emergence (sprayed after 8 days cultivation), 1000 g/h, evaluated after 13 days, five point scale", "method": "as §1"}, "[12]": {"test_system": "Alopecurus myosuroides (ALOMY)", "test": "Post-emergence glasshouse herbicide test", "conditions": "post-emergence (sprayed after 8 days cultivation), 1000 g/h, evaluated after 13 days, five point scale", "method": "as §1"}}, "data": [{"smiles": "Cc1nc(C(F)(F)F)ccc1-n1nccc(O)c1=O.O=C(O)C(F)(F)F", "note": "[Compound 1.027]", "values": [{"measurement": "percentage damage caused to the plant, PRE Application SETFA", "setting": "Setaria faberi (SETFA) [1]", "result": "4 (4=60-79%)"}, {"measurement": "percentage damage caused to the plant, PRE Application IPOHE", "setting": "[2]", "result": "5 (5=80-100%)"}, {"measurement": "percentage damage caused to the plant, PRE Application AMARE", "setting": "[3]", "result": "4 (4=60-79%)"}, {"measurement": "percentage damage caused to the plant, PRE Application ECHCG", "setting": "[4]", "result": "5 (5=80-100%)"}, {"measurement": "percentage damage caused to the plant, PRE Application SOLNI", "setting": "Solanum nigrum (SOLNI) [5]", "result": "5 (5=80-100%)"}, {"measurement": "percentage damage caused to the plant, PRE Application ALOMY", "setting": "[6]", "result": "1 (1=0-19%)"}, {"measurement": "percentage damage caused to the plant, POST Application SETFA", "setting": "Setaria faberi (SETFA) [7]", "result": "4 (4=60-79%)"}, {"measurement": "percentage damage caused to the plant, POST Application IPOHE", "setting": "[8]", "result": "5 (5=80-100%)"}, {"measurement": "percentage damage caused to the plant, POST Application AMARE", "setting": "[9]", "result": "4 (4=60-79%)"}, {"measurement": "percentage damage caused to the plant, POST Application ECHCG", "setting": "[10]", "result": "5 (5=80-100%)"}, {"measurement": "percentage damage caused to the plant, POST Application SOLNI", "setting": "Solanum nigrum (SOLNI) [11]", "result": "5 (5=80-100%)"}, {"measurement": "percentage damage caused to the plant, POST Application ALOMY", "setting": "[12]", "result": "1 (1=0-19%)"}]}, {"smiles": "Cc1c(-n2ncc(C#N)c(O)c2=O)ccc(S(C)(=O)=O)c1C1=NOCC1", "note": "[Compound 1.026]", "values": [{"measurement": "percentage damage caused to the plant, PRE Application SETFA", "setting": "Setaria faberi (SETFA) [1]", "result": "5 (5=80-100%)"}, {"measurement": "percentage damage caused to the plant, PRE Application IPOHE", "setting": "[2]", "result": "5 (5=80-100%)"}, {"measurement": "percentage damage caused to the plant, PRE Application AMARE", "setting": "[3]", "result": "5 (5=80-100%)"}, {"measurement": "percentage damage caused to the plant, PRE Application ECHCG", "setting": "[4]", "result": "5 (5=80-100%)"}, {"measurement": "percentage damage caused to the plant, PRE Application SOLNI", "setting": "Solanum nigrum (SOLNI) [5]", "result": "5 (5=80-100%)"}, {"measurement": "percentage damage caused to the plant, PRE Application ALOMY", "setting": "[6]", "result": "1 (1=0-19%)"}, {"measurement": "percentage damage caused to the plant, POST Application SETFA", "setting": "Setaria faberi (SETFA) [7]", "result": "5 (5=80-100%)"}, {"measurement": "percentage damage caused to the plant, POST Application IPOHE", "setting": "[8]", "result": "5 (5=80-100%)"}, {"measurement": "percentage damage caused to the plant, POST Application AMARE", "setting": "[9]", "result": "5 (5=80-100%)"}, {"measurement": "percentage damage caused to the plant, POST Application ECHCG", "setting": "[10]", "result": "5 (5=80-100%)"}, {"measurement": "percentage damage caused to the plant, POST Application SOLNI", "setting": "Solanum nigrum (SOLNI) [11]", "result": "5 (5=80-100%)"}, {"measurement": "percentage damage caused to the plant, POST Application ALOMY", "setting": "[12]", "result": "1 (1=0-19%)"}]}, {"smiles": "Cc1c(-n2ncc(C#N)c(O)c2=O)ccc(S(C)(=O)=O)c1C1=NOCC1", "note": "[Compound 1.009]", "values": [{"measurement": "percentage damage caused to the plant, PRE Application SETFA", "setting": "Setaria faberi (SETFA) [1]", "result": "4 (4=60-79%)"}, {"measurement": "percentage damage caused to the plant, PRE Application IPOHE", "setting": "[2]", "result": "4 (4=60-79%)"}, {"measurement": "percentage damage caused to the plant, PRE Application AMARE", "setting": "[3]", "result": "5 (5=80-100%)"}, {"measurement": "percentage damage caused to the plant, PRE Application ECHCG", "setting": "[4]", "result": "5 (5=80-100%)"}, {"measurement": "percentage damage caused to the plant, PRE Application SOLNI", "setting": "Solanum nigrum (SOLNI) [5]", "result": "4 (4=60-79%)"}, {"measurement": "percentage damage caused to the plant, PRE Application ALOMY", "setting": "[6]", "result": "1 (1=0-19%)"}, {"measurement": "percentage damage caused to the plant, POST Application SETFA", "setting": "Setaria faberi (SETFA) [7]", "result": "5 (5=80-100%)"}, {"measurement": "percentage damage caused to the plant, POST Application IPOHE", "setting": "[8]", "result": "5 (5=80-100%)"}, {"measurement": "percentage damage caused to the plant, POST Application AMARE", "setting": "[9]", "result": "5 (5=80-100%)"}, {"measurement": "percentage damage caused to the plant, POST Application ECHCG", "setting": "[10]", "result": "5 (5=80-100%)"}, {"measurement": "percentage damage caused to the plant, POST Application SOLNI", "setting": "Solanum nigrum (SOLNI) [11]", "result": "5 (5=80-100%)"}, {"measurement": "percentage damage caused to the plant, POST Application ALOMY", "setting": "[12]", "result": "1 (1=0-19%)"}]}, {"smiles": "CS(=O)(=O)c1cc(C(F)(F)F)ccc1-n1ncc(Br)c(O)c1=O", "note": "[Compound 1.032]", "values": [{"measurement": "percentage damage caused to the plant, PRE Application SETFA", "setting": "Setaria faberi (SETFA) [1]", "result": "5 (5=80-100%)"}, {"measurement": "percentage damage caused to the plant, PRE Application IPOHE", "setting": "[2]", "result": "5 (5=80-100%)"}, {"measurement": "percentage damage caused to the plant, PRE Application AMARE", "setting": "[3]", "result": "5 (5=80-100%)"}, {"measurement": "percentage damage caused to the plant, PRE Application ECHCG", "setting": "[4]", "result": "5 (5=80-100%)"}, {"measurement": "percentage damage caused to the plant, PRE Application SOLNI", "setting": "Solanum nigrum (SOLNI) [5]", "result": "5 (5=80-100%)"}, {"measurement": "percentage damage caused to the plant, PRE Application ALOMY", "setting": "[6]", "result": "5 (5=80-100%)"}, {"measurement": "percentage damage caused to the plant, POST Application SETFA", "setting": "Setaria faberi (SETFA) [7]", "result": "5 (5=80-100%)"}, {"measurement": "percentage damage caused to the plant, POST Application IPOHE", "setting": "[8]", "result": "5 (5=80-100%)"}, {"measurement": "percentage damage caused to the plant, POST Application AMARE", "setting": "[9]", "result": "5 (5=80-100%)"}, {"measurement": "percentage damage caused to the plant, POST Application ECHCG", "setting": "[10]", "result": "5 (5=80-100%)"}, {"measurement": "percentage damage caused to the plant, POST Application SOLNI", "setting": "Solanum nigrum (SOLNI) [11]", "result": "5 (5=80-100%)"}, {"measurement": "percentage damage caused to the plant, POST Application ALOMY", "setting": "[12]", "result": "5 (5=80-100%)"}]}, {"smiles": "CSc1cnn(-c2ccc(C(F)(F)F)cc2S(C)(=O)=O)c(=O)c1O", "note": "[Compound 1.034]", "values": [{"measurement": "percentage damage caused to the plant, PRE Application SETFA", "setting": "Setaria faberi (SETFA) [1]", "result": "3 (3=40-59%)"}, {"measurement": "percentage damage caused to the plant, PRE Application IPOHE", "setting": "[2]", "result": "4 (4=60-79%)"}, {"measurement": "percentage damage caused to the plant, PRE Application AMARE", "setting": "[3]", "result": "5 (5=80-100%)"}, {"measurement": "percentage damage caused to the plant, PRE Application ECHCG", "setting": "[4]", "result": "4 (4=60-79%)"}, {"measurement": "percentage damage caused to the plant, PRE Application SOLNI", "setting": "Solanum nigrum (SOLNI) [5]", "result": "5 (5=80-100%)"}, {"measurement": "percentage damage caused to the plant, PRE Application ALOMY", "setting": "[6]", "result": "1 (1=0-19%)"}, {"measurement": "percentage damage caused to the plant, POST Application SETFA", "setting": "Setaria faberi (SETFA) [7]", "result": "3 (3=40-59%)"}, {"measurement": "percentage damage caused to the plant, POST Application IPOHE", "setting": "[8]", "result": "4 (4=60-79%)"}, {"measurement": "percentage damage caused to the plant, POST Application AMARE", "setting": "[9]", "result": "5 (5=80-100%)"}, {"measurement": "percentage damage caused to the plant, POST Application ECHCG", "setting": "[10]", "result": "4 (4=60-79%)"}, {"measurement": "percentage damage caused to the plant, POST Application SOLNI", "setting": "Solanum nigrum (SOLNI) [11]", "result": "5 (5=80-100%)"}, {"measurement": "percentage damage caused to the plant, POST Application ALOMY", "setting": "[12]", "result": "1 (1=0-19%)"}]}]}
